# Experimental data published in patent US11208427B2, “Dicaffeoyl spermidine derivative glycosides and use thereof” (Jinan University, priority 2016, dated 2021).
# Marks after values point to notes of the source that are not given here.
# Columns and labels:
# [1] = test system: respiratory syncytial virus (RSV); assay: microbe, parasite or virus in culture; format: cell-based; details: for SI = CC50/IC50: RSV, HEp-2 cells; for IC50: RSV in HEp-2 cells, CPE, 60-72 hours
# Protocol: (§1) 1) HEp-2 cells were seeded in 96-well cell culture plates at 100 μL/well and the cell density was 2.5×10^5/mL. The cells were cultured in a 37° C., 5% CO2 incubator and grown into a cell single layer over about 20 h.
# 2) The culture fluid in the 96-well plate was discarded and the sample to be tested was half diluted by using maintenance solution with the starting concentration of the monomeric compound being 50 μM, and 50 μL of sample and 50 μL of 100×TCID50 of virus dilution being added into each well. The positive control drug Ribavirin group, virus control group and cell control group were set and placed in a 37° C., 5% CO2 incubator for culture.
# 3) The culture was continued for 60-72 hours, and the viral lesions in each group were recorded when the lesions were completely developed in the virus control group.
# 4) The virus-induced cytopathic effect was recorded as follows: no cellular lesion was recorded as “−”, 0 to 25% cellular lesions was recorded as “+”, 25% to 50% cellular lesion was recorded as “++”, 50%˜75% of cellular lesion was recorded as “+++”, and 75% to 100% of cellular lesion was recorded as “++++”. The sample concentration corresponding to the “++” lesion level is the half inhibitory concentration IC50 of the sample against the virus.
# 5) Three replicates were performed independently for each experiment.
# [2] = test system: Senile dementia fruit fly (Aβ42; P35*H29.3); assay: learning and memory (olfactory short-term memory, T-Maze) of Senile dementia fruit fly; format: in vivo; details: performance index, 100 μM in feed, n = 6
# From the text: W^1118 (isoCJ1), as a background fruit fly of control group in the experiment, was abbreviated as “2U”. The fruit flies that successfully introduced with the pathogenic Aβ42 protein were (UAS-Aβ42; abbreviated as “H29.3”). This strain of fruit flies was hybridized with the fruit fly expressing the Gal4 promoter in whole brain, and the fruit fly strain carrying elav-GAL4^c155 (P35) and Aβ42 was obtained.
# Three groups of drug-free control of healthy fruit fly, drug-free control of disease fruit fly, and dose disease fruit fly were set in the experiment.
# All parents of tested fruit flies were housed and propagated at a constant temperature of 24° C. and a humidity of 42% RH (Relative humidity). On the first day after the emergence of the fruit flies, the fruit flies of control group and disease group, as well as the fruit flies to be administered were anesthetized with carbon dioxide, and then the fruit flies of the correct characters were selected into the glass tube containing food. During the dosing period, all tested fruit flies were kept in an incubator with a constant temperature of 28° C. and a constant humidity of 42% to ensure the drug taking efficiency of the fruit flies. Each day the fruit flies were administered for 4 hours, and the drug was administered from the second day after the fruit flies were selected until the 8th day.
# The drugs administered were prepared on the second day after the fruit fly selection, and were administered to the fruit flies on the day of preparation. The drugs were dissolved by 100% DMSO to a concentration of 10 mM. When preparing the working solution, the 10 mM stock solution was diluted to 100 μM with 4% sucrose. In addition, the fruit flies of control group were fed sucrose water containing 1% DMSO. For each Performance Index, two tubes of fruit fly groups are required, each tube containing about 100 fruit flies.
# Experiments were conducted in a light proof behavior room with constant temperature of 25° C., constant humidity of 70%. The method can be found in references^[1-3].
# 1) During the training stage, about 100 flies were loaded into a training tube provided with a copper mesh cross electrode. Two kinds of odors of octanol (OCT) and methylcyclohexanol (MCH) were successively introduced for each 60 s with an intervals for 45 s of fresh air. 60 V pulsed electrical shock stimulation (US, pulse duration 1.5 s, interval 3.5 s) was applied to the fruit flies while introducing the 1st odor. No electrical shock was applied when the second odor (CS−) was introduced. Thereby one training cycle was completed.
# 2) In the transient memory (learning) ability test, the fruit flies that completed one training cycle were immediately transferred to the selection point of T-Maze, while CS+ and CS− were introduced from the opposite two directions. After two minutes of selection, the fruit flies on both sides were collected separately and counted after anesthesia or sacrifice. The calculation formula for the performance index (PI) is as follows: PI=[(CS−)−(CS+)]/[(CS−)+(CS+)]×100.
# Using OCT and MCH as CS+ for training and testing respectively, the average of the two PIs obtained was used as PI for one experiment. […] When performing the activity test, the short-term memory deficit tests for the olfactory sensation of the non-administered healthy flies with the same genetic background (2U*H29.3), non-administered Senile dementia disease flies (P35*H29.3), and test drug administered Senile dementia disease flies were also conducted, and their total learning and memory performance indexes (PIs) was calculated respectively. The learning and memory performance index of the test drug administered Senile dementia disease flies was compared with the performance index of the non-administered healthy flies with the same genetic background (2U*H29.3), and the performance index of the non-administered Senile dementia disease flies (P35*H29.3), to evaluate effect of the test drugs against Senile dementia. […]
# HEp-2 cells = assay: Cytotoxicity assay (MTT); format: cell-based; details: 72 hours
# Protocol: as §1
# (§2) 2) The culture fluid in the 96-well plate was discarded and the sample to be tested was half diluted into different concentrations by using maintenance solution. For each dilution, 3 replicate wells were set at 100 μL/well, and cell control wells were also set at the same time. Then they were placed in the incubator to continue the culture.
# (§3) 3) The cytopathic effect caused by sample toxicity was observed every day. After 72 hours, the culture solution was discarded, and according to the MTT method, 30 μL of 5 mg/mL MTT solution was added into each well. They were placed in the incubator to continue the incubation for 4 h in dark.
# [3] = oxygen radical absorbance capacity (ORAC) experiment; details: relative to Trolox; AAPH, fluorescein
# Protocol: The antioxidant activity of the compounds was evaluated by using the oxygen radical absorbance capacity (ORAC) experiment. The detailed experimental procedure is as follows. 0.248 g of AAPH (2,2′-azobisisobutylamidine dihydrochloride) was added to a 50 mL phosphate buffer system to formulate a 18.3 mM AAPH stock solution. 20 μL of phosphate buffer, 20 μL solution of sample to be tested or standard substance Trolox (concentration of 6.25 μM) and 20 μL of fluorescent substance of disodium fluorescein (FL, concentration of 630 nM) were added to the wells of a 96-well plate in order. Then, 140 μL of AAPH (concentration of 18.3 mM) was quickly added to the wells of the 96-well plate, which was immediately placed in a GENios […] microplate reader manufactured by Tecan, Switzerland, the excitation wavelength was set as 485 nm and the emission wavelength was set as 527 nm. The fluorescence intensity was measured every 2 minutes and recorded for a total of 100 min.
# The antioxidant capacity of the active substance is calculated as follows: Relative ORAC value=(AUCsample−AUCblank)/(AUCtrolox−AUCblank). Wherein, AUCsample refers to the integral area under the fluorescence decay curve of the test sample, AUCtrolox refers to the integral area under the fluorescence decay curve of the standard substance Trolox, and AUCblank refers to the integral area under the fluorescence decay curve when the test sample or the standard substance Trolox is not added.
# Cytotoxicity assay (MTT) = format: cell-based; details: human, HEp-2 cells
# Protocol: as §1, §2, §3
compound,measurement,setting,value
O=C(CCc1ccc(O)c(O[C@@H]2O[C@H](CO)[C@@H](O)[C@H](O)[C@H]2O)c1)NCCCCNCCCNC(=O)CCc1ccc(O)c(O[C@@H]2O[C@H](CO)[C@@H](O)[C@H](O)[C@H]2O)c1 [formula XII],SI = CC50/IC50,[1],>2
same,PI (100 μM),[2]; experiment b,33.5 ± 3.0**
same,CC50,HEp-2 cells,> 100 µM
same,MNCC,HEp-2 cells,>100 µM
same,ORAC value,[3],1.23 ± 0.04 μmol TE/μmol
"CC12CC3CC(C)(C1)CC(N)(C3)C2 [Memantine, reference compound]",PI (100 μM),[2]; experiment a,43.1 ± 0.9***
same,PI (100 μM),[2]; experiment b,42.7 ± 0.9***
same,PI (100 μM),[2]; experiment c,44.2 ± 2.1***
O=C(CCc1ccc(O[C@@H]2O[C@H](CO)[C@@H](O)[C@H](O)[C@H]2O)c(O)c1)NCCCCNCCCNC(=O)CCc1ccc(O[C@@H]2O[C@H](CO)[C@@H](O)[C@H](O)[C@H]2O)c(O)c1 [formula XIII],IC50,[1],25 µM
same,SI = CC50/IC50,[1],>4
same,PI (100 μM),[2]; experiment b,42.5 ± 3.0***
same,CC50,HEp-2 cells,> 100 µM
same,MNCC,HEp-2 cells,>100 µM
same,ORAC value,[3],2.06 ± 0.04 μmol TE/μmol
"NC(=O)c1ncn([C@@H]2O[C@H](CO)[C@@H](O)[C@H]2O)n1 [Ribavirin, reference compound]",SI = CC50/IC50,[1],15
same,IC50,[1]; human respiratory syncytial virus,2.5 µM
same,MNCC,HEp-2 cells,15.32 ± 4.31 µM
same,CC50 at 72 h,Cytotoxicity assay (MTT),37.9 ± 3.82 µM
O=C(/C=C/c1ccc(O)c(O)c1)NCCCNCCCCNC(=O)CCc1ccc(O)c(O[C@@H]2O[C@H](CO)[C@@H](O)[C@H](O)[C@H]2O)c1 [formula IV],IC50,[1],25 µM
same,SI = CC50/IC50,[1],>4
same,PI (100 μM),[2]; experiment a,42.2 ± 2.1***
same,CC50,HEp-2 cells,> 100 µM
same,MNCC,HEp-2 cells,>100 µM
same,ORAC value,[3],1.73 ± 0.04 μmol TE/μmol
O=C(/C=C/c1ccc(O[C@@H]2O[C@H](CO)[C@@H](O)[C@H](O)[C@H]2O)c(O)c1)NCCCNCCCCNC(=O)CCc1ccc(O)c(O)c1 [formula V],IC50,[1],25 µM
same,SI = CC50/IC50,[1],>4
same,PI (100 μM),[2]; experiment a,35.0 ± 1.3*
same,CC50,HEp-2 cells,> 100 µM
same,MNCC,HEp-2 cells,>100 µM
same,ORAC value,[3],2.96 ± 0.03 μmol TE/μmol
O=C(/C=C/c1ccc(O)c(O[C@@H]2O[C@H](CO)[C@@H](O)[C@H](O)[C@H]2O)c1)NCCCNCCCCNC(=O)CCc1ccc(O)c(O[C@@H]2O[C@H](CO)[C@@H](O)[C@H](O)[C@H]2O)c1 [formula VII],SI = CC50/IC50,[1],>2
same,PI (100 μM),[2]; experiment b,44.6 ± 2.5***
same,CC50,HEp-2 cells,> 100 µM
same,MNCC,HEp-2 cells,>100 µM
same,ORAC value,[3],1.02 ± 0.02 μmol TE/μmol
O=C(CCc1ccc(O)c(O[C@@H]2O[C@H](CO)[C@@H](O)[C@H](O)[C@H]2O)c1)NCCCCNCCCNC(=O)CCc1ccc(O[C@@H]2O[C@H](CO)[C@@H](O)[C@H](O)[C@H]2O)c(O)c1 [formula XIV],SI = CC50/IC50,[1],>2
same,PI (100 μM),[2]; experiment c,44.6 ± 1.2***
same,CC50,HEp-2 cells,> 100 µM
same,MNCC,HEp-2 cells,>100 µM
same,ORAC value,[3],1.81 ± 0.05 μmol TE/μmol
O=C(/C=C\c1ccc(O)c(O[C@@H]2O[C@H](CO)[C@@H](O)[C@H](O)[C@H]2O)c1)NCCCNCCCCNC(=O)CCc1ccc(O[C@@H]2O[C@H](CO)[C@@H](O)[C@H](O)[C@H]2O)c(O)c1 [formula VIII],SI = CC50/IC50,[1],>2
same,PI (100 μM),[2]; experiment b,32.2 ± 2.3*
same,CC50,HEp-2 cells,> 100 µM
same,MNCC,HEp-2 cells,>100 µM
same,ORAC value,[3],3.07 ± 0.02 μmol TE/μmol
O=C(/C=C/c1ccc(O)c(O)c1)NCCCNCCCCNC(=O)CCc1ccc(O[C@@H]2O[C@H](CO)[C@@H](O)[C@H](O)[C@H]2O)c(O)c1 [formula II],IC50,[1],25 µM
same,SI = CC50/IC50,[1],>4
same,PI (100 μM),[2]; experiment a,35.5 ± 3.8*
same,CC50,HEp-2 cells,> 100 µM
same,MNCC,HEp-2 cells,>100 µM
same,ORAC value,[3],2.04 ± 0.04 μmol TE/μmol
O=C(CCc1ccc(O)c(O)c1)NCCCCNCCCNC(=O)CCc1ccc(O)c(O[C@@H]2O[C@H](CO)[C@@H](O)[C@H](O)[C@H]2O)c1 [formula XI],IC50,[1],25 µM
same,SI = CC50/IC50,[1],>4
same,PI (100 μM),[2]; experiment b,37.2 ± 2.9***
same,CC50,HEp-2 cells,> 100 µM
same,MNCC,HEp-2 cells,>100 µM
same,ORAC value,[3],2.07 ± 0.03 μmol TE/μmol
"O=C(O[C@@H]1Cc2c(O)cc(O)cc2O[C@@H]1c1cc(O)c(O)c(O)c1)c1cc(O)c(O)c(O)c1 [EGCG, epigallocatechin gallate, reference compound]",ORAC value,[3],1.48 ± 0.02 μmol TE/μmol
O=C(/C=C/c1ccc(O)c(O[C@@H]2O[C@H](CO)[C@@H](O)[C@H](O)[C@H]2O)c1)NCCCNCCCCNC(=O)CCc1ccc(O)c(O)c1 [formula III],IC50,[1],25 µM
same,SI = CC50/IC50,[1],>4
same,PI (100 μM),[2]; experiment a,42.9 ± 1.6***
same,CC50,HEp-2 cells,> 100 µM
same,MNCC,HEp-2 cells,>100 µM
same,ORAC value,[3],1.87 ± 0.04 μmol TE/μmol
